In ChEMBL document CHEMBL2169878 (J Med Chem, 2012):
Active and inactive are the calls of the source. The calls are words filed in the database; no cut-off is given here.

Legend:
[1] = biological target: T1, Chloroquine resistance transporter (Plasmodium falciparum) (UniProt Q9N623); assay: Inhibition of chloroquine-resistant Plasmodium falciparum Dd2 CRT expressed in Xenopus laevis oocyte assessed as inhibition of [3H]chloroquine uptake at 100 uM measured from 1 to 2 hrs
T1 sequence (whole entry): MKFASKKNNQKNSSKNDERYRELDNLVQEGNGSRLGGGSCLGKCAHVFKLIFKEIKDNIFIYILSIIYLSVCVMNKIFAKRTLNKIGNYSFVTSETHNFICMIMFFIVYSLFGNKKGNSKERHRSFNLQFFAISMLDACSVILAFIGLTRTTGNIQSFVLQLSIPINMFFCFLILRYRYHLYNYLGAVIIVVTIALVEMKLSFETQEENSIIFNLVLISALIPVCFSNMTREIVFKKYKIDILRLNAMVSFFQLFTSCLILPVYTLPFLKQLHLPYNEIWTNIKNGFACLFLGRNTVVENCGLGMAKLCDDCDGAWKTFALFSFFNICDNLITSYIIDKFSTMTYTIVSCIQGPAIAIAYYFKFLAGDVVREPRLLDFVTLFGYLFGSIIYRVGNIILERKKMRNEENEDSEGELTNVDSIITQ

Salmonella typhimurium [2] = assay: Mutagenicity against Salmonella typhimurium TA98 assessed as revertants at 24 uM incubated for 90 mins followed by drug washout measured after 2 days relative to positive control; type: toxicity, organism-based; settings: salmonella enterica subsp. enterica serovar typhimurium, 1.5 h
Salmonella typhimurium [3] = assay: Mutagenicity against Salmonella typhimurium TA98 assessed as revertants at 16 uM incubated for 90 mins followed by drug washout measured after 2 days relative to positive control; type: toxicity, organism-based; settings: salmonella enterica subsp. enterica serovar typhimurium
Salmonella typhimurium [4] = assay: Mutagenicity against Salmonella typhimurium TA98 assessed as revertants at 40 uM incubated for 90 mins followed by drug washout measured after 2 days relative to positive control; type: toxicity, organism-based; settings: salmonella enterica subsp. enterica serovar typhimurium
Salmonella typhimurium [5] = assay: Mutagenicity against Salmonella typhimurium TA98 assessed as revertants at 80 uM incubated for 90 mins followed by drug washout measured after 2 days relative to positive control; type: toxicity, organism-based; settings: salmonella enterica subsp. enterica serovar typhimurium, 1.5 h
Salmonella typhimurium [6] = assay: Mutagenicity against Salmonella typhimurium TA100 assessed as revertants at 2 uM incubated for 90 mins followed by drug washout measured after 2 days relative to positive control; type: toxicity, organism-based; settings: salmonella enterica subsp. enterica serovar typhimurium
Salmonella typhimurium [7] = assay: Mutagenicity against Salmonella typhimurium TA100 assessed as revertants at 4 uM incubated for 90 mins followed by drug washout measured after 2 days relative to positive control; type: toxicity, organism-based; settings: salmonella enterica subsp. enterica serovar typhimurium, 1.5 h
Salmonella typhimurium [8] = assay: Mutagenicity against Salmonella typhimurium TA100 assessed as revertants at 24 uM incubated for 90 mins followed by drug washout measured after 2 days relative to positive control; type: toxicity, organism-based; settings: salmonella enterica subsp. enterica serovar typhimurium
Salmonella typhimurium [9] = assay: Mutagenicity against Salmonella typhimurium TA100 assessed as revertants at 16 uM incubated for 90 mins followed by drug washout measured after 2 days relative to positive control; type: toxicity, organism-based; settings: salmonella enterica subsp. enterica serovar typhimurium
Salmonella typhimurium [10] = assay: Mutagenicity against Salmonella typhimurium TA100 assessed as revertants at 40 uM incubated for 90 mins followed by drug washout measured after 2 days relative to positive control; type: toxicity, organism-based; settings: salmonella enterica subsp. enterica serovar typhimurium
Salmonella typhimurium [11] = assay: Mutagenicity against Salmonella typhimurium TA100 assessed as revertants at 80 uM incubated for 90 mins followed by drug washout measured after 2 days relative to positive control; type: toxicity, organism-based; settings: salmonella enterica subsp. enterica serovar typhimurium
Plasmodium falciparum [12] = assay: Antiplasmodial activity against chloroquine-sensitive Plasmodium falciparum D10 infected in human RBC after 72 hrs by parasite lactate dehydrogenase assay; type: functional, organism-based; settings: D10, 72 h
Plasmodium falciparum [13] = assay: Antiplasmodial activity against chloroquine-resistant Plasmodium falciparum W2 infected in human RBC after 72 hrs by parasite lactate dehydrogenase assay; type: functional, organism-based; settings: W2, 72 h
Plasmodium berghei [14] = assay: Antimalarial activity against Plasmodium berghei ANKA expressing GFP infected in mouse assessed as reduction in parasitemia at 100 mg/kg, po administered 24 hrs post-infection measured 48 hrs post-dosing by flow cytometric analysis; type: functional; set-up: scale not given: the % may be the effect or the level left
Plasmodium berghei [15] = assay: Antimalarial activity against Plasmodium berghei ANKA expressing GFP infected in mouse assessed as reduction in parasitemia at 30 mg/kg, po administered 24 hrs post-infection measured 48 hrs post-dosing by flow cytometric analysis; type: functional; set-up: scale not given: the % may be the effect or the level left
Plasmodium berghei [16] = assay: Antimalarial activity against Plasmodium berghei ANKA expressing GFP infected in mouse assessed as mean survival days at 100 mg/kg, po administered 24 hrs post-infection (reference value: 6 to 7 days); type: functional
Plasmodium berghei [17] = assay: Antimalarial activity against Plasmodium berghei ANKA expressing GFP infected in mouse assessed as mean survival days at 30 mg/kg, po administered 24 hrs post-infection (reference value: 6 to 7 days); type: functional
Plasmodium berghei [18] = assay: Antimalarial activity against Plasmodium berghei ANKA expressing GFP infected in mouse assessed as cure from infection at 100 mg/kg, po administered 24 hrs post-infection measured on day 30; type: functional, organism-based; set-up: dose 100 mg/kg
Plasmodium berghei [19] = assay: Antimalarial activity against Plasmodium berghei ANKA expressing GFP infected in mouse assessed as cure from infection at 30 mg/kg, po administered 24 hrs post-infection measured on day 30; type: functional, organism-based; set-up: dose 30 mg/kg
[20] = Cytotoxicity against mouse NIH3T3 cells after 24 hrs by neutral red dye uptake assay; type: cell-based; settings: read-out: TC50
[21] = Cytotoxicity against human HepG2 cells after 24 hrs by neutral red dye uptake assay; type: cell-based; settings: read-out: TC50
Salmonella typhimurium [22] = assay: Mutagenicity against Salmonella typhimurium TA98 assessed as revertants at 2 uM incubated for 90 mins followed by drug washout measured after 2 days relative to positive control; type: toxicity, organism-based; settings: salmonella enterica subsp. enterica serovar typhimurium, 1.5 h
Salmonella typhimurium [23] = assay: Mutagenicity against Salmonella typhimurium TA98 assessed as revertants at 4 uM incubated for 90 mins followed by drug washout measured after 2 days relative to positive control; type: toxicity, organism-based; settings: salmonella enterica subsp. enterica serovar typhimurium
Plasmodium falciparum [24] = assay: Resistance ratio of IC50 for chloroquine-resistant Plasmodium falciparum W2 to IC50 for chloroquine-sensitive Plasmodium falciparum D10; type: functional
Plasmodium falciparum [25] = assay: Antiplasmodial activity against chloroquine-sensitive Plasmodium falciparum NF54 infected in human erythrocytes assessed as inhibition of [3H]hypoxanthine incorporation incubated for 48 hrs prior to [3H]hypoxanthine addition measured after 48 hrs by liquid scintillation counting; type: functional, organism-based
Plasmodium falciparum [26] = assay: Antiplasmodial activity against chloroquine-resistant Plasmodium falciparum K1 infected in human erythrocytes assessed as inhibition of [3H]hypoxanthine incorporation incubated for 48 hrs prior to [3H]hypoxanthine addition measured after 48 hrs by liquid scintillation counting; type: functional, organism-based

COc1ccc(CCN(C)CCCC(C#N)(c2ccc(OC)c(OC)c2)C(C)C)cc1OC (centres undefined) gave an inhibition [1] of 74%.
For Clc1ccc(C(c2ccccc2)(c2ccc(CN3CCCC3)cc2)n2ccnc2)cc1 (racemic), the inhibition [1] was “Active”.
Clc1ccc(C(Nc2ccnc3cc(Cl)ccc23)c2ccc(CN3CCCC3)c(Cl)c2)cc1 (racemic) gave an Activity (Salmonella typhimurium [2]) of 10%, an Activity (Salmonella typhimurium [3]) of 3% and an Activity (Salmonella typhimurium [4]) of 10%. For the same molecule, the Activity (Salmonella typhimurium [5]) was 0%, the Activity (Salmonella typhimurium [6]) was 4% and the Activity (Salmonella typhimurium [7]) was 3%. It also gave an Activity (Salmonella typhimurium [8]) of 4%, an Activity (Salmonella typhimurium [9]) of 1% and an Activity (Salmonella typhimurium [10]) of 8%. For the same molecule, the Activity (Salmonella typhimurium [11]) was 1%, the IC50 (Plasmodium falciparum [12]) was 0.0084 µM and the IC50 (Plasmodium falciparum [13]) was 0.028 µM. It also gave an Activity (Plasmodium berghei [14]) of 99.5%, an Activity (Plasmodium berghei [15]) of 99.4% and an MSD (Plasmodium berghei [16]) of 14 days. The MSD (Plasmodium berghei [17]) was 7.7 days, the Activity (Plasmodium berghei [18]) was “inactive” and the Activity (Plasmodium berghei [19]) was “inactive”. It also gave an inhibition [1] of 70%, a CC50 at 24 h [20] of 16 µM and a CC50 at 24 h [21] of 4 µM. For the same molecule, the Activity (Salmonella typhimurium [22]) was 17% and the Activity (Salmonella typhimurium [23]) was 0%.
With CN1CCN(Cc2ccc(C(Nc3ccnc4cc(Cl)ccc34)c3ccc(Cl)cc3)cc2)CC1 (racemic) the IC50 (Plasmodium falciparum [12]) was 0.021 µM, the IC50 (Plasmodium falciparum [13]) was 0.042 µM and the “Ratio IC50” value (Plasmodium falciparum [24]) was 2. For the same molecule, the inhibition [1] was “Active”.
In the case of Clc1ccc(C(c2ccc(CN3CCCC3)cc2)N2CCN(c3ccnc4cc(Cl)ccc34)CC2)cc1 (racemic), the IC50 (Plasmodium falciparum [12]) is reported as 0.631 µM, the IC50 (Plasmodium falciparum [13]) is reported as 0.735 µM and the IC50 (Plasmodium falciparum [25]) is reported as 0.088 µM. It also gave an IC50 (Plasmodium falciparum [26]) of 0.156 µM and an inhibition [1] of 58%.
